Assay results taken from publication PMC8583417, “Evaluation of the Antimicrobial Efficacy of N-Acetyl-L-Cysteine, Rhamnolipids, and Usnic Acid—Novel Approaches to Fight Food-Borne Pathogens” (International Journal of Molecular Sciences, 2021).
In brackets after ≈: the same amount, converted by molar mass.

Assays:
S. Infantis S13 [1] = test: MIC for planktonic cell growth (A625nm); type: cell-based, Salmonella enterica Infantis; conditions: for MICPC80: ≥80% inhibition, 24 h
Protocol: (§1) Ten concentrations of NAC, RLs, and UA were tested to determine the minimum inhibitory concentration for planktonic growth, and subsequently, the six highest concentrations were applied on preformed biofilms to evaluate the biofilm eradication ability of the compounds. MIC was defined as the lowest substance concentration able to inhibit at least 80% of microbial growth (MICPC80 for planktonic cells, MICBC80 for further growth of biofilm cells), inhibit 80% of metabolic activity (MICBM80 for biofilm metabolic activity, MICMPB80 for metabolic activity of preformed biofilm), prevent biofilm formation by at least 80% (MICBF80 for biofilm formation), or reduce a preformed biofilm by at least 80% (MICBR80 for biofilm reduction). The results of MICs are summarized in Table 1 (planktonic cells) and Table 2 (biofilm-associated cells).
(§2) The determination of MICs was performed according to Chlumsky et al.. Briefly, 96-well flat-bottomed microtiter plates were inoculated with 75 µL (for biofilm formation) or 100 µL (for preformed biofilm) of bacterial suspension (A625nm 0.08 to 0.1) in technical triplicates and were then carefully mixed with the dilution series of the test substances (24 h cultivation at 25 °C for S. Infantis, 37 °C for other strains) or were directly cultivated to preform biofilms (18 h). For a positive control of bacterial growth, the inoculum was mixed with a pure sterile medium. Furthermore, the sterile medium was included in the plate as a marker of potential microbial contamination. To evaluate planktonic cells growth (MICPC80) and further growth of biofilm cells (MICBC80), the optical density of the content of the microtiter plates was measured spectrophotometrically at 625 nm before and after 24 h (for biofilm formation) of cultivation or before and after additional 20 h incubation with the tested compound (for preformed biofilm). The difference of A625nm was considered as a measure of the ability of cells to grow in the presence of the tested substances. To evaluate the inhibition of biofilm formation (MICBF80) and reduction in preformed biofilms (MICBR80), biomass was quantified using crystal violet staining, and its metabolic activity (MICBM80 and MICMPB80) was estimated by using the MTT (thiazyl tetrazolium bromide, Sigma-Aldrich, USA) reduction assay, both measured spectrophotometrically at 595 nm.
(§3) All inhibitions were calculated using the formula of Chlumsky et al. below (Equation (1)):(1) A625(595)nm inhibition (%)=A625(595)nm (control) – A625(595)nm(natural substance)/A625(595)nm (control)× 100 where A625(595)nm (control) is the absorbance of bacterial suspension/biofilm itself, and A625(595)nm(natural substance) is the absorbance of the bacterial suspension/biofilm with the added natural substance (NAC, RLs, and UA).
(§4) When the minimum inhibitory concentration could not be determined, the MIC was established as >the highest tested concentration for NAC, RLs, and UA.

S. Infantis S59 [2] = test: MIC for planktonic cell growth (A625nm); type: cell-based, Salmonella enterica Infantis; conditions: for MICPC80: ≥80% inhibition, 24 h
Protocol: as §1, §2, §3, §4

S. aureus 1241 = test: MIC for biofilm formation (crystal violet staining); type: cell-based, Staphylococcus aureus; conditions: ≥80% prevention, 24 h
Protocol: as §1
as §2, with “Furthermore, the sterile medium was included in the plate as a marker of potential microbial contamination.” left out, “The difference of A625nm was considered as a measure of the ability of cells to grow in the presence of the tested substances.” left out
as §3, §4

S. aureus 816 = test: as above; type: cell-based, Staphylococcus aureus; conditions: ≥80% prevention, 24 h
Protocol: as §1
as §2, with “Furthermore, the sterile medium was included in the plate as a marker of potential microbial contamination.” left out, “The difference of A625nm was considered as a measure of the ability of cells to grow in the presence of the tested substances.” left out
as §3, §4

L. monocytogenes 149 [3] = test: MIC for biofilm metabolic activity (MTT reduction assay); type: cell-based, Listeria monocytogenes; conditions: ≥80% inhibition, 24 h
Protocol: as §1
as §2, with “Furthermore, the sterile medium was included in the plate as a marker of potential microbial contamination.” left out, “The difference of A625nm was considered as a measure of the ability of cells to grow in the presence of the tested substances.” left out
as §3, §4

L. monocytogenes 164 [4] = test: as above; type: cell-based, Listeria monocytogenes; conditions: ≥80% inhibition, 24 h
Protocol: as §1
as §2, with “Furthermore, the sterile medium was included in the plate as a marker of potential microbial contamination.” left out, “The difference of A625nm was considered as a measure of the ability of cells to grow in the presence of the tested substances.” left out
as §3, §4

L. monocytogenes 149 [5] = test: MIC for further growth of biofilm cells, preformed biofilm (A625nm); type: cell-based, Listeria monocytogenes; conditions: ≥80% inhibition, 18 h preformed biofilm, 20 h with substance
Protocol: as §1
as §2, with “Furthermore, the sterile medium was included in the plate as a marker of potential microbial contamination.” left out, “The difference of A625nm was considered as a measure of the ability of cells to grow in the presence of the tested substances.” left out
as §3, §4

L. monocytogenes 164 [6] = test: as above; type: cell-based, Listeria monocytogenes; conditions: ≥80% inhibition, 18 h preformed biofilm, 20 h with substance
Protocol: as §1
as §2, with “Furthermore, the sterile medium was included in the plate as a marker of potential microbial contamination.” left out, “The difference of A625nm was considered as a measure of the ability of cells to grow in the presence of the tested substances.” left out
as §3, §4

E. coli 683/17 = test: MIC for reduction of preformed biofilm (crystal violet staining); type: cell-based, Escherichia coli; conditions: for maximal achieved inhibition (MICBR80 not reached), biofilm reduction: preformed biofilm, within tested concentrations; for MICBR80: ≥80% reduction of preformed biofilm (18 h), 20 h with substance
Protocol: as §1, §2, §3, §4

E. coli 693/17 = test: as above; type: cell-based, Escherichia coli; conditions: for MICBR80: ≥80% reduction of preformed biofilm (18 h), 20 h with substance
Protocol: as §1, §2, §3, §4

S. Infantis S13 [7] = test: as above; type: cell-based, Salmonella enterica Infantis; conditions: for MICBR80: ≥80% reduction of preformed biofilm (18 h), 20 h with substance
Protocol: as §1, §2, §3, §4

S. Infantis S59 [8] = test: as above; type: cell-based, Salmonella enterica Infantis; conditions: for MICBR80: ≥80% reduction of preformed biofilm (18 h), 20 h with substance
Protocol: as §1, §2, §3, §4

[9] = system: S. Enteritidis ATCC 13076; test: as above; type: cell-based, Salmonella enterica Enteritidis; conditions: for MICBR80: ≥80% reduction of preformed biofilm (18 h), 20 h with substance
Protocol: as §1
(§5) The determination of MICs was performed according to Chlumsky et al.. […] To evaluate planktonic cells growth (MICPC80) and further growth of biofilm cells (MICBC80), the optical density of the content of the microtiter plates was measured spectrophotometrically at 625 nm before and after 24 h (for biofilm formation) of cultivation or before and after additional 20 h incubation with the tested compound (for preformed biofilm). […] To evaluate the inhibition of biofilm formation (MICBF80) and reduction in preformed biofilms (MICBR80), biomass was quantified using crystal violet staining, and its metabolic activity (MICBM80 and MICMPB80) was estimated by using the MTT (thiazyl tetrazolium bromide, Sigma-Aldrich, USA) reduction assay, both measured spectrophotometrically at 595 nm.
as §3, with “UA). […]” for “UA).”

[10] = system: S. Enteritidis ATCC 13076; test: MIC for metabolic activity of preformed biofilm (MTT reduction assay); type: cell-based, Salmonella enterica Enteritidis; conditions: for MICMPB80: ≥80% inhibition, 20 h with substance
Protocol: as §1, §5
as §3, with “UA). […]” for “UA).”

[11] = system: cell lines HRTEC, HaCat, HDF, HEK 293, HCAEC; test: Acute cytotoxicity, resazurin assay, summary over cell lines; type: cell-based, human; conditions: 72 h
Text: To test the acute cytotoxicity of the compounds, the following cell lines were used: primary human renal tubular epithelial cells (HRTEC; Evercyte, Vienna, Austria); human keratinocytes (HaCat; Thermo Fisher Scientific, Waltham, MA, USA); human dermal fibroblasts (HDF; Merck, Kenilworth, NJ, USA); human epithelial kidney cells (HEK 293; ATCC, Manassas, VI, USA); primary human coronary artery endothelial cells (HCAEC; ATCC, Manassas, VI, USA). The cell lines were maintained in a proper cultivation medium—HaCat, HDF, and Hek 293 in DMEM; HRTEC in VCB; HCAEC in ProxUp. The cytotoxicity experiment was realized according to Tran et al.. Briefly, the cells were counted by the Cellometer Auto T4 (Nexcelom Bioscience, Lawrence, MA, USA), and the cell suspension containing a cell density of 10^5 cells/mL was split into the 96-well plate, with 100 µL per well. The plates were then incubated for 24 h at 37 °C in a humidified atmosphere of 5% CO2. Then, the plates were washed three times with PBS, and the tested natural compounds were added using binary dilution in a proper medium. After 72 h of incubation, the cell viability was tested by resazurin assay. The fluorescence was measured by a SpectraMax i3× microplate reader (San Jose, CA, USA) at a wavelength of 560 nm excitation/590 nm emission.
The cytotoxicity results are expressed as the average IC50 ± standard error of the mean (SEM). […]

[12] = preformed biofilm, within tested concentrations

Compound | MICPC80 (S. Infantis S13 [1]) | MICPC80 (S. Infantis S59 [2]) | MICBF80 (S. aureus 1241) | MICBF80 (S. aureus 816) | MICBM80 (L. monocytogenes 149 [3]) | MICBM80 (L. monocytogenes 164 [4]) | MICBC80 (L. monocytogenes 149 [5]) | MICBC80 (L. monocytogenes 164 [6]) | maximal achieved inhibition (MICBR80 not reached), biofilm reduction (E. coli 683/17) | MICBR80 (E. coli 683/17) | MICBR80 (E. coli 693/17) | MICBR80 (S. Infantis S13 [7]) | MICBR80 (S. Infantis S59 [8]) | MICBR80 [9] | MICMPB80 [10] | further results
CC(=O)c1c(O)c(C)c(O)c2c1OC1=CC(=O)C(C(C)=O)C(=O)C12C (single isomer, unassigned; (+)) [UA, (+)-usnic acid] | > 31.3 µg/mL | > 31.3 µg/mL | 0.24 µg/mL | 0.24 µg/mL | 1.96 µg/mL | 1.96 µg/mL | 1.96 µg/mL | 1.96 µg/mL | 0% | > 31.3 µg/mL | > 31.3 µg/mL | > 31.3 µg/mL | > 31.3 µg/mL | > 31.3 µg/mL | > 31.3 µg/mL | maximal achieved inhibition (MICPC80 not reached) (S. Infantis S13 [1]; within tested concentrations): 25%; maximal achieved inhibition (MICPC80 not reached) (S. Infantis S59 [2]; within tested concentrations): 31%; maximal achieved inhibition (MICBR80 not reached), biofilm reduction (E. coli 693/17; [12]): 0%; maximal achieved inhibition (MICBR80 not reached), biofilm reduction (S. Infantis S13 [7]; [12]): 30%; maximal achieved inhibition (MICBR80 not reached), biofilm reduction (S. Infantis S59 [8]; [12]): 21%; maximal achieved inhibition (MICBR80 not reached), biofilm reduction [9, 12]: 0%; maximal achieved inhibition (MICMPB80 not reached) ([10]; within tested concentrations): 53%; IC50, range over cell lines [11]: 0.03 to 4.35 µg/mL
CC(=O)N[C@@H](CS)C(=O)O [NAC, N-Acetyl-L-cysteine] | 6250 µg/mL | 6250 µg/mL | 12,500 µg/mL | 3130 µg/mL | 12,500 µg/mL | 6250 µg/mL | 3130 µg/mL | 3130 µg/mL | 68% | > 100,000 µg/mL | 100,000 µg/mL | 12,500 µg/mL | 100,000 µg/mL | 12,500 µg/mL | 12,500 µg/mL | IC50 ([11]; Homo sapiens, read-out: IC50, range over cell lines): 460 to 4020 µg/mL (≈ 2820 to 24600 µM)
